Assay results from PubChem BioAssay (NCI).
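Values below derive from 48-hour exposures of cells grown in 96-well plates, with endpoints linearly interpolated between the two concentrations bracketing the appropriate inhibition level. GI50: concentration for 50% inhibition of growth. At the TGI there is no net growth.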

How the values were obtained:
Test in all cases: inhibition of tumour cell growth, NCI panel, 48 h
EKVX NSCLC = system: EKVX NSCLC
A549 NSCLC = system: A549 NSCLC
SF-295 CNS = system: SF-295 CNS
MCF7 breast = system: MCF7 breast
U251 CNS = system: U251 CNS
UACC-62 melanoma = system: UACC-62 melanoma
M14 melanoma = system: M14 melanoma
TK-10 renal = system: TK-10 renal
OVCAR-5 ovarian = system: OVCAR-5 ovarian
LOX IMVI melanoma = system: LOX IMVI melanoma
HOP-62 NSCLC = system: HOP-62 NSCLC
ACHN renal = system: ACHN renal
CAKI-1 renal = system: CAKI-1 renal
PC-3 prostate = system: PC-3 prostate
DU-145 prostate = system: DU-145 prostate
BT-549 breast = system: BT-549 breast
CCRF-CEM leukemia = system: CCRF-CEM leukemia
SK-MEL-5 melanoma = system: SK-MEL-5 melanoma
NCI-H23 lung = system: NCI-H23 lung
COLO 205 colon = system: COLO 205 colon
MDA-MB-435 = system: MDA-MB-435
UACC-257 melanoma = system: UACC-257 melanoma
HS 578T breast = system: HS 578T breast
NCI-H460 lung = system: NCI-H460 lung
A498 renal = system: A498 renal
HCT-116 colon = system: HCT-116 colon
MDA-MB-231 breast = system: MDA-MB-231 breast
KM12 colon = system: KM12 colon
SNB-75 CNS = system: SNB-75 CNS
SN12C renal = system: SN12C renal
SK-OV-3 ovarian = system: SK-OV-3 ovarian
RPMI-8226 leukemia = system: RPMI-8226 leukemia
HCC-2998 colon = system: HCC-2998 colon
OVCAR-8 ovarian = system: OVCAR-8 ovarian
HOP-92 NSCLC = system: HOP-92 NSCLC
OVCAR-4 ovarian = system: OVCAR-4 ovarian
SF-539 CNS = system: SF-539 CNS
SF-268 CNS = system: SF-268 CNS
786-0 renal = system: 786-0 renal
MOLT-4 leukemia = system: MOLT-4 leukemia
SR leukemia = system: SR leukemia
K-562 leukemia = system: K-562 leukemia
NCI-H226 lung = system: NCI-H226 lung
MALME-3M melanoma = system: MALME-3M melanoma
T-47D breast = system: T-47D breast
IGROV1 ovarian = system: IGROV1 ovarian
SW-620 colon = system: SW-620 colon
HL-60(TB) leukemia = system: HL-60(TB) leukemia
UO-31 renal = system: UO-31 renal
NCI/ADR-RES ovarian = system: NCI/ADR-RES ovarian
RXF 393 renal = system: RXF 393 renal
HT29 colon = system: HT29 colon
SNB-19 CNS = system: SNB-19 CNS
SK-MEL-2 melanoma = system: SK-MEL-2 melanoma
HCT-15 colon = system: HCT-15 colon
OVCAR-3 ovarian = system: OVCAR-3 ovarian
SK-MEL-28 melanoma = system: SK-MEL-28 melanoma
NCI-H522 lung = system: NCI-H522 lung

## O=C(Nc1ccc2c(c1)OCO2)C(=O)c1c[nH]c2cc(F)ccc12
EKVX NSCLC
  GI50: 13.3 µM
  TGI: > 100 µM
A549 NSCLC
  GI50: 2.81 µM
  TGI: > 100 µM
SF-295 CNS
  GI50: 2.19 µM
  TGI: 21.5 µM
MCF7 breast
  GI50: 6.91 µM
  TGI: > 100 µM
U251 CNS
  GI50: 9.17 µM
  TGI: 51.7 µM
UACC-62 melanoma
  GI50: 0.238 µM
  TGI: 1.58 µM
M14 melanoma
  GI50: 0.466 µM
  TGI: 10.9 µM
TK-10 renal
  GI50: 7.04 µM
  TGI: 25.4 µM
OVCAR-5 ovarian
  GI50: 17.9 µM
  TGI: > 100 µM
LOX IMVI melanoma
  GI50: 0.476 µM
  TGI: > 100 µM
HOP-62 NSCLC
  GI50: 5.11 µM
  TGI: 21.9 µM
ACHN renal
  GI50: 0.547 µM
  TGI: 20.4 µM
CAKI-1 renal
  GI50: 0.677 µM
  TGI: > 100 µM
PC-3 prostate
  GI50: 3.33 µM
  TGI: > 100 µM
DU-145 prostate
  GI50: 3.52 µM
  TGI: 44.6 µM
BT-549 breast
  GI50: 9.35 µM
  TGI: 98.7 µM
CCRF-CEM leukemia
  GI50: 5.33 µM
  TGI: > 100 µM
SK-MEL-5 melanoma
  GI50: 0.726 µM
  TGI: 10.6 µM
NCI-H23 lung
  GI50: 13.9 µM
  TGI: 55.4 µM
COLO 205 colon
  GI50: 13.5 µM
  TGI: > 100 µM
MDA-MB-435
  GI50: 0.854 µM
  TGI: > 100 µM
UACC-257 melanoma
  GI50: 1.7 µM
  TGI: 15.5 µM
HS 578T breast
  GI50: 2.63 µM
  TGI: 62.7 µM
NCI-H460 lung
  GI50: 3.26 µM
  TGI: > 100 µM
A498 renal
  GI50: 2.72 µM
  TGI: 16.7 µM
HCT-116 colon
  GI50: 11.2 µM
  TGI: > 100 µM
MDA-MB-231 breast
  GI50: 2.12 µM
  TGI: 25.4 µM
KM12 colon
  GI50: 0.389 µM
  TGI: 13.7 µM
SNB-75 CNS
  GI50: 2.6 µM
  TGI: 12.1 µM
SN12C renal
  GI50: 38.3 µM
  TGI: > 100 µM
SK-OV-3 ovarian
  GI50: 4.24 µM
  TGI: 15.2 µM
RPMI-8226 leukemia
  GI50: 50 µM
  TGI: > 100 µM
HCC-2998 colon
  GI50: 0.688 µM
  TGI: > 100 µM
OVCAR-8 ovarian
  GI50: 3.89 µM
  TGI: 23.6 µM
HOP-92 NSCLC
  GI50: 1.12 µM
  TGI: 5.6 µM
OVCAR-4 ovarian
  GI50: 1.9 µM
  TGI: > 100 µM
SF-539 CNS
  GI50: 3.23 µM
  TGI: 36.3 µM
SF-268 CNS
  GI50: 4.52 µM
  TGI: 22.1 µM
786-0 renal
  GI50: 4.39 µM
  TGI: 23 µM
MOLT-4 leukemia
  GI50: 11.7 µM
  TGI: 69.2 µM
SR leukemia
  GI50: 2.85 µM
  TGI: 19.6 µM
K-562 leukemia
  GI50: 0.6 µM
  TGI: 20.8 µM
NCI-H226 lung
  GI50: 3.74 µM
  TGI: 16.8 µM
MALME-3M melanoma
  GI50: 3 µM
  TGI: 8.61 µM
T-47D breast
  GI50: 1.75 µM
  TGI: > 100 µM
IGROV1 ovarian
  GI50: 12.6 µM
  TGI: > 100 µM
SW-620 colon
  GI50: 2.07 µM
  TGI: > 100 µM
HL-60(TB) leukemia
  GI50: 4.51 µM
  TGI: > 100 µM
UO-31 renal
  GI50: 4.42 µM
  TGI: 44.9 µM
NCI/ADR-RES ovarian
  GI50: 1.47 µM
  TGI: 22.9 µM
RXF 393 renal
  GI50: 3.65 µM
  TGI: 11 µM
HT29 colon
  GI50: 8.04 µM
  TGI: > 100 µM
SNB-19 CNS
  GI50: 7.74 µM
  TGI: 77.3 µM
SK-MEL-2 melanoma
  GI50: 5.19 µM
  TGI: 31.1 µM
HCT-15 colon
  GI50: 0.67 µM
  TGI: > 100 µM
OVCAR-3 ovarian
  GI50: 4.67 µM
  TGI: 19 µM
SK-MEL-28 melanoma
  GI50: 2.05 µM
  TGI: 5.54 µM

## CCc1nc2cc(/C=C/C(=O)NO)ccc2c(=O)n1CCc1ccc(F)cc1
EKVX NSCLC
  GI50: 2.44 µM
  TGI: 7.21 µM
A549 NSCLC
  GI50: 1.72 µM
  TGI: 4.58 µM
SF-295 CNS
  GI50: 1.87 µM
  TGI: 3.61 µM
MCF7 breast
  GI50: 1.31 µM
  TGI: > 100 µM
U251 CNS
  GI50: 1.31 µM
  TGI: 2.91 µM
NCI-H522 lung
  GI50: 1.34 µM
  TGI: 4.06 µM
M14 melanoma
  GI50: 1.65 µM
  TGI: 3.6 µM
TK-10 renal
  GI50: 1.42 µM
  TGI: 4.89 µM
OVCAR-5 ovarian
  GI50: 2.19 µM
  TGI: > 100 µM
LOX IMVI melanoma
  GI50: 1.35 µM
  TGI: 2.78 µM
HOP-62 NSCLC
  GI50: 1.5 µM
  TGI: 4.44 µM
ACHN renal
  GI50: 1.5 µM
  TGI: 3.27 µM
CAKI-1 renal
  GI50: 2.27 µM
  TGI: 6.12 µM
PC-3 prostate
  GI50: 2.92 µM
  TGI: > 100 µM
DU-145 prostate
  GI50: 1.94 µM
  TGI: 8.67 µM
BT-549 breast
  GI50: 2.84 µM
  TGI: 9.14 µM
CCRF-CEM leukemia
  GI50: 1.39 µM
  TGI: > 100 µM
SK-MEL-5 melanoma
  GI50: 0.903 µM
  TGI: 2.21 µM
NCI-H23 lung
  GI50: 1.62 µM
  TGI: 3.7 µM
COLO 205 colon
  GI50: 1.26 µM
  TGI: 3.65 µM
MDA-MB-435
  GI50: 1.7 µM
  TGI: 4.38 µM
UACC-257 melanoma
  GI50: 2.24 µM
  TGI: 5.92 µM
HS 578T breast
  GI50: 2.26 µM
  TGI: > 100 µM
NCI-H460 lung
  GI50: 1.08 µM
  TGI: 3.82 µM
A498 renal
  GI50: 1.1 µM
  TGI: 2.77 µM
HCT-116 colon
  GI50: 0.49 µM
  TGI: 2.93 µM
MDA-MB-231 breast
  GI50: 1.32 µM
  TGI: 4.67 µM
KM12 colon
  GI50: 2.2 µM
  TGI: 14.3 µM
SK-OV-3 ovarian
  GI50: 1.93 µM
  TGI: 4.3 µM
RPMI-8226 leukemia
  GI50: 0.99 µM
  TGI: > 100 µM
HCC-2998 colon
  GI50: 1.59 µM
  TGI: 3.95 µM
HOP-92 NSCLC
  GI50: 2.45 µM
  TGI: 6.28 µM
OVCAR-4 ovarian
  GI50: 2.34 µM
  TGI: > 100 µM
SF-539 CNS
  GI50: 1.73 µM
  TGI: 5.53 µM
SF-268 CNS
  GI50: 2.14 µM
  TGI: 5.98 µM
786-0 renal
  GI50: 1.76 µM
  TGI: 3.89 µM
MOLT-4 leukemia
  GI50: 1.79 µM
  TGI: > 100 µM
SR leukemia
  GI50: 1.74 µM
  TGI: > 100 µM
K-562 leukemia
  GI50: 2.37 µM
  TGI: > 100 µM
NCI-H226 lung
  GI50: 1.71 µM
  TGI: 4.59 µM
MALME-3M melanoma
  GI50: 1.83 µM
  TGI: 12.4 µM
T-47D breast
  GI50: 0.629 µM
  TGI: 6.23 µM
HL-60(TB) leukemia
  GI50: 4.59 µM
  TGI: > 100 µM
UO-31 renal
  GI50: 1.41 µM
  TGI: 3.11 µM
NCI/ADR-RES ovarian
  GI50: 0.577 µM
  TGI: 3.15 µM
HT29 colon
  GI50: 1.49 µM
  TGI: 9.06 µM
SNB-19 CNS
  GI50: 1.82 µM
  TGI: 5.34 µM
SK-MEL-2 melanoma
  GI50: 2.9 µM
  TGI: 6.59 µM
HCT-15 colon
  GI50: 1.57 µM
  TGI: 39.6 µM
SK-MEL-28 melanoma
  GI50: 1.85 µM
  TGI: 4.15 µM
